# Results from patent publication EP0326331B1, “Substituted quinolines and cinnolines” (Dow AgroSciences LLC, priority 1988, dated 1989).
# Legend:
# Type in all cases: in vivo
# [1] = system: Erysiphe graminis tritici (powdery mildew); test: Test 1 greenhouse foliar spray screen, powdery mildew on wheat; conditions: disease control rating, foliar spray on wheat, 400 ppm (+++ at 100 ppm)
# [2] = system: Pyricularia oryzae (rice blast); test: whole plant or invertebrate; conditions: disease control rating, foliar spray on rice, 400 ppm (+++ at 100 ppm)
# [3] = system: Puccinia recondita tritici (leaf rust); test: Test 1 greenhouse foliar spray screen, leaf rust on wheat; conditions: disease control rating, foliar spray on wheat, 400 ppm (+++ at 100 ppm)
# [4] = system: Botrytis cinerea (gray mold); test: Test 1 greenhouse foliar spray screen, gray mold on grape berries; conditions: disease control rating, spray on grape berries, 400 ppm (+++ at 100 ppm)
# [5] = system: Pseudoperonospora cubensis (downy mildew); test: Test 1 greenhouse foliar spray screen, downy mildew on squash; conditions: for DOWN MDEW: disease control rating, foliar spray on squash, 400 ppm (+++ at 100 ppm)
# [6] = system: Cercospora beticola (leaf spot); test: Test 1 greenhouse foliar spray screen, leaf spot on sugar beet; conditions: disease control rating, foliar spray on sugar beet, 400 ppm (+++ at 100 ppm)
# [7] = system: Venturia inaequalis (apple scab); test: Test 1 greenhouse foliar spray screen, apple scab on apple seedling; conditions: disease control rating, foliar spray on apple seedling, 400 ppm (+++ at 100 ppm)
# [8] = system: Septoria tritici (leaf blotch); test: Test 1 greenhouse foliar spray screen, leaf blotch on wheat; conditions: disease control rating, foliar spray on wheat, 400 ppm (+++ at 100 ppm)
# [9] = system: southern armyworm (Spodopetra eridania Cramer); test: Mite/insect screen, SAW; conditions: percent mortality, SAW; for mortality at 200 ppm / mortality at 400 ppm: Spodoptera eridania, read-out: SAW RESULTS %; for mortality at 400 ppm: SM & MA RATE 400 PPM
# In short: (§1)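 Read-out: percent mortality after standard exposure periods. Test solutions were water dilutions of compound dissolved in acetone/alcohol (50:50) with emulsifier blends; leaves were sprayed to runoff on both surfaces and air-dried for one hour before exposure.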
# [10] = system: Twospotted spider mites (Tetranychus urticae Koch); test: Mite/insect screen, SM; conditions: for mortality at 200 ppm / mortality at 400 ppm: Tetranychus urticae, read-out: SM RESULTS %; for mortality at 400 ppm: SM & MA RATE 400 PPM
# In short: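 Foliar spray to runoff (10 psi), 1 h drying; aqueous dilutions from acetone/alcohol emulsifier stock. Mortality (%) after standard exposure.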
# [11] = system: melon aphids (Aphis gossypii Glover); test: Mite/insect screen, MA; conditions: percent mortality, SAW; for mortality at 200 ppm / mortality at 400 ppm: Aphis gossypii, read-out: MA RESULTS %; for mortality at 400 ppm: SM & MA RATE 400 PPM
# In short: as §1
# [12] = system: corn rootworm; test: Mite/insect screen, CRW; conditions: percent mortality; for mortality at 12 ppm / mortality at 24 ppm: read-out: CRW RESULTS %; for mortality at 24 ppm: CRW RATE 24.00 PPM
# In short: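 Read-out: % mortality after standard exposure. Formulation: acetone/alcohol (50:50) with emulsifiers at 23 g and 13 g per liter, water-diluted to final test levels.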
# [13] = percent mortality, SAW, SM & MA RATE 200 PPM
# [14] = summary statement in the description
smiles,measurement,setting,value
"COc1cc(CCNc2ccnc3cc(Cl)ccc23)cc(OC)c1 [Example 45, 7-chloro-N-[2-(3,5-dimethoxyphenyl)ethyl]-4-quinolinamine]",POWD MDEW,[1],+ (20-89% control at 400 ppm)
same,RICE BLAST,[2],++ (90-100% control at 400 ppm)
same,LEAF RUST,[3],+ (20-89% control at 400 ppm)
same,GRAY MOLD,[4],- (0-19% control at 400 ppm)
same,DOWN MDEW,[5],++ (90-100% control at 400 ppm)
same,LEAF SPOT,[6],+++ (90-100% control at 100 ppm)
same,APPL SCAB,[7],- (0-19% control at 400 ppm)
same,LEAF BLOT,[8],- (0-19% control at 400 ppm)
same,mortality at 200 ppm,[9]; SM & MA RATE 200 PPM,0%
same,mortality at 400 ppm,[9],0%
same,mortality at 200 ppm,[10]; [13],0%
same,mortality at 400 ppm,"[10]; percent mortality, SAW",0%
same,mortality at 200 ppm,[11]; SM & MA RATE 200 PPM,0%
same,mortality at 400 ppm,[11],0%
same,mortality at 12 ppm,[12]; CRW RATE 12.00 PPM,0%
same,mortality at 24 ppm,[12],0%
"Fc1cccc2c(NCCc3nc(-c4ccccc4)cs3)ccnc12 [Example 154, 8-fluoro-N-[2-(4-phenyl-2-thiazolyl)ethyl]-4-quinolinamine]",POWD MDEW,[1],++ (90-100% control at 400 ppm)
same,RICE BLAST,[2],+ (20-89% control at 400 ppm)
same,LEAF RUST,[3],+++ (90-100% control at 100 ppm)
same,GRAY MOLD,[4],- (0-19% control at 400 ppm)
same,DOWN MDEW,[5],+++ (90-100% control at 100 ppm)
same,activity against downy mildew,[5]; [14],particularly excellent activity
same,LEAF SPOT,[6],+ (20-89% control at 400 ppm)
same,APPL SCAB,[7],+ (20-89% control at 400 ppm)
same,LEAF BLOT,[8],+ (20-89% control at 400 ppm)
same,mortality at 200 ppm,[9]; SM & MA RATE 200 PPM,0%
same,SAW RESULTS %,[9]; SM & MA RATE 200 PPM,0%
same,mortality at 200 ppm,[10]; [13],0%
same,SM RESULTS %,[10]; [13],0%
same,mortality at 200 ppm,[11]; SM & MA RATE 200 PPM,0%
same,MA RESULTS %,[11]; SM & MA RATE 200 PPM,0%
same,CRW RESULTS %,[12]; CRW RATE 12.00 PPM,0%
same,mortality at 12 ppm,[12]; CRW RATE 12.00 PPM,0%
"Clc1ccc(CCNc2ccnc3cc(Cl)ccc23)c(Cl)c1 [Example 44, 7-chloro-N-[2-(2,4-dichlorophenyl)ethyl]-4-quinolinamine]",POWD MDEW,[1],+++ (90-100% control at 100 ppm)
same,RICE BLAST,[2],+ (20-89% control at 400 ppm)
same,LEAF RUST,[3],+ (20-89% control at 400 ppm)
same,GRAY MOLD,[4],- (0-19% control at 400 ppm)
same,DOWN MDEW,[5],+++ (90-100% control at 100 ppm)
same,LEAF SPOT,[6],+++ (90-100% control at 100 ppm)
same,APPL SCAB,[7],+ (20-89% control at 400 ppm)
same,LEAF BLOT,[8],- (0-19% control at 400 ppm)
same,mortality at 200 ppm,[9]; SM & MA RATE 200 PPM,0%
same,mortality at 400 ppm,[9],0%
same,mortality at 200 ppm,[10]; [13],0%
same,mortality at 400 ppm,"[10]; percent mortality, SAW",0%
same,mortality at 200 ppm,[11]; SM & MA RATE 200 PPM,0%
same,mortality at 400 ppm,[11],0%
same,mortality at 12 ppm,[12]; CRW RATE 12.00 PPM,0%
same,mortality at 24 ppm,[12],0%
"c1ccc(CCCNc2ccnc3ccccc23)cc1 [Example 139, N-(3-phenylpropyl)-4-quinolinamine]",POWD MDEW,[1],+ (20-89% control at 400 ppm)
same,RICE BLAST,[2],+ (20-89% control at 400 ppm)
same,LEAF RUST,[3],+ (20-89% control at 400 ppm)
same,GRAY MOLD,[4],- (0-19% control at 400 ppm)
same,DOWN MDEW,[5],++ (90-100% control at 400 ppm)
same,LEAF SPOT,[6],- (0-19% control at 400 ppm)
same,APPL SCAB,[7],- (0-19% control at 400 ppm)
same,LEAF BLOT,[8],- (0-19% control at 400 ppm)
same,mortality at 200 ppm,[9]; SM & MA RATE 200 PPM,0%
same,mortality at 200 ppm,[10]; [13],0%
same,mortality at 200 ppm,[11]; SM & MA RATE 200 PPM,0%
same,mortality at 12 ppm,[12]; CRW RATE 12.00 PPM,0%
"Fc1cccc2c(NCCc3ccc(Br)cc3)ccnc12 [Example 94, N-[2-(4-bromophenyl)ethyl]-8-fluoro-4-quinolinamine]",POWD MDEW,[1],+ (20-89% control at 400 ppm)
same,RICE BLAST,[2],+++ (90-100% control at 100 ppm)
same,LEAF RUST,[3],+++ (90-100% control at 100 ppm)
same,GRAY MOLD,[4],- (0-19% control at 400 ppm)
same,DOWN MDEW,[5],+++ (90-100% control at 100 ppm)
same,LEAF SPOT,[6],+++ (90-100% control at 100 ppm)
same,APPL SCAB,[7],- (0-19% control at 400 ppm)
same,LEAF BLOT,[8],+ (20-89% control at 400 ppm)
same,mortality at 200 ppm,[9]; SM & MA RATE 200 PPM,0%
same,mortality at 200 ppm,[10]; [13],0%
same,activity as miticides,[10]; [14],particularly excellent activity
same,mortality at 200 ppm,[11]; SM & MA RATE 200 PPM,0%
same,mortality at 12 ppm,[12]; CRW RATE 12.00 PPM,100%
